{
  "source": "patent US20110020837A1",
  "about": "“Method for isolating or identifying a target protein interacting with a lipid in a cell” (Universiteit Utrecht Holding B.V., priority 2009, published 2011)",
  "key": {"[1]": {"assay": "Stability of terminal alkyne towards UV irradiation, 1H-NMR analysis", "format": "physicochemical", "settings": "irradiation for 5 minutes"}, "[2]": {"assay": "UV activation of the photoactivatable diazirine ring, loss of absorption at 349.5 nm", "format": "physicochemical", "settings": "ethanolic solution, thirty seconds of irradiation, 200 W mercury lamp, filter below 350 nm", "protocol": "FIG. 9. Panel A, Activation of the photoactivatable diazirine ring was optimized by exposing an ethanolic solution of 10-azi-stearic acid (10-ASA) under the described conditions to UV-light for the indicated time. Absorbance at 349.5 nm was measured to monitor decay of 10-ASA. Panel B, A solution of defatted BSA (1 mg/ml) was irradiated under the same conditions and analyzed by SDS-PAGE.\nSamples were irradiated applying a 200 W high pressure mercury lamp (Oriel Photomax) equipped with a PYREX® glass filter to remove wavelengths below 350 nm. Samples were placed on ice at a distance from 35 cm from the light source. In order to optimize cross-linking conditions we made use of the characteristic absorption of the diazirine group (FIG. 8). An ethanolic solution of 10-azi stearic acid (10-ASA) was irradiated under the conditions described above and the loss of absorption at 349.5 nm was monitored (FIG. 9, Panel A). Thirty seconds of irradiation activated 95% of the photoactivatable group. Samples were UV irradiated for 1 minute. To exclude degradation of proteins under these conditions a 1 mg/ml solution of BSA was irradiated up to 5 minutes and analyzed by gel electrophoresis and subsequent Coomassie staining (FIG. 9, Panel B). […]"}, "[3]": {"test_system": "membrane and cytosolic proteins of CHO-CGalT cells", "assay": "In vivo labeling of cells with C15pacFA, alexa488-azide click of membranes and cytosol, SDS-PAGE in-gel fluorescence", "format": "cell-based", "settings": "membranes and cytosol after UV irradiation", "protocol": "FIG. 2. In vivo labeling of proteins interacting with lipids. CHO-CGalT cells were labeled with and without 100 μM C15pacFA for 16 hours. Where indicated, cells were UV irradiated. Total membranes were separated from cytosol. The cytosolic proteins were precipitated by CHCl3/MeOH precipitation and total membranes as well as the cytosolic precipitate were subjected to click reaction conditions using alexa488-azide or biotin-azide. Panel A, Proteins labeled with alexa488-azide were separated by SDS-PAGE and analyzed by in-gel fluorescence. […] The lanes were cut into ten gel pieces as indicated and analyzed by mass spectrometry as described herein. […]\nIn order to see whether pacFAs can be used to investigate protein-lipid interactions in vivo, we administered C15pacFA to cells. […] Both membranes and cytosol were subjected to click reaction conditions and samples were analyzed by SDS-PAGE and in-gel fluorescence (FIG. 2). […] 208 proteins were identified that were exclusively detected upon labeling cells with C15pacFA (FIG. 2, Panel D, lane III). […] Proteins that were exclusively detected upon labeling with C15pacFA and subsequent cross-linking (lane IV) are given in Table 2. […]"}, "lysozyme": {"target": "lysozyme (Gallus gallus, UniProt P00698)", "sequence (P00698 19-147)": "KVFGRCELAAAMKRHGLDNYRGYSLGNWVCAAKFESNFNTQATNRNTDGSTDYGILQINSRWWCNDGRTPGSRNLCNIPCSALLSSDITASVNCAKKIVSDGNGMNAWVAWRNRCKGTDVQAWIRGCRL", "assay": "Photo-affinity labeling of lysozyme with C15pacFA (specificity control), click reaction with biotin-azide, Western blot", "format": "binding", "settings": "same conditions as BSA; protein known not to interact with lipids", "protocol": "FIG. 5. Panel A, Proof-of-concept for the specific interaction of pacFA with a fatty acid binding protein. An ethanolic solution of C15pacFA was added to a solution of defatted-BSA or lysozyme in PBS as described above. After incubating for 1 hour at room temperature samples were UV-irradiated and 20 μl were subjected to click reaction with biotin-azide. Samples were analyzed by SDS-PAGE, followed by Western blotting and detection via NeutrAvidin coupled to horse radish peroxidase. Panel B, SDS-PAGE and subsequent staining with Coomassie brilliant blue.\nSerum albumin binds and transports fatty acids. As a proof-of-concept that C15pacFA can be used to tag proteins with an affinity for fatty acids, defatted bovine serum albumin (BSA) was incubated with C15pacFA and subsequently UV-irradiated. […]\nSamples were irradiated applying a 200 W high pressure mercury lamp (Oriel Photomax) equipped with a PYREX® glass filter to remove wavelengths below 350 nm. […] An ethanolic solution of 10-azi stearic acid (10-ASA) was irradiated under the conditions described above and the loss of absorption at 349.5 nm was monitored (FIG. 9, Panel A). […] To exclude degradation of proteins under these conditions a 1 mg/ml solution of BSA was irradiated up to 5 minutes and analyzed by gel electrophoresis and subsequent Coomassie staining (FIG. 9, Panel B). […]"}, "CHO-CGalT cells [4]": {"test_system": "CHO-CGalT cells", "assay": "Incorporation of pacFAs into cellular lipids, lipid extracts analysed by nano-ESI-MS/MS", "format": "cell-based", "settings": "100 μM, 16 hours", "protocol": "FIGS. 7A and 7B. Mass spectrometric analysis of photoactivatable and clickable PC species. CHO-CGaIT cells (−5×10^7 cells) were labeled for 16 hours in delipidated medium in the absence (upper panel) or presence (lower panel) of 100 μM (FIG. 7A) C15pacFA or (FIG. 7B) C16pacFA. Lipids were extracted, dried and subsequently dissolved in 5 mM ammonium acetate in MeOH and subjected to nano-ESI-MS/MS. Shown are PREC184 spectra visualizing choline phosphate-containing lipids. Abbreviations give the total number of carbon atoms of fatty acids attached and the numbers of double bonds within the fatty acid. Transparent bars highlight PC species containing the pacFAs.\nGiven the small size of fatty acids, additional functional groups might have an impact on their physical properties. Due to the rigidity of the triple bond pacFAs are slightly kinked in the end and their overall length is shorter compared with their corresponding natural counterparts. […] Phosphatidylcholine (PC) is the major lipid class in eukaryotic cells. To analyze choline phosphate containing species, a precursor ion scanning procedure was employed selecting for fragments with a mass of 184 Da. […] UV irradiation of the lipid extracts gave rise to peaks with a mass 28 Da lower than the corresponding pacPC species due to the release of nitrogen followed by either an α-hydrogen migration or an intramolecular crosslink of the carbene (data not shown).^[4] […] SM16:0 is the major SM species in CHO cells. Its biosynthesis requires two palmitoyl-CoA: (i) as a precursor of the sphingoid backbone and (ii) for its N-acylation. The length of the N-acylated fatty acid is strictly controlled since there is no SM14:0 and only a minor amount of SM18:0 in CHO cells.^[5] Therefore, we assumed that the chain length of C15pacFA might interfere with its incorporation into SM. […]\nLipids were extracted according to Bligh and Dyer and analyzed as described previously (K. Retra, O. B. Bleijerveld, R. A. van Gestel, A. G. Tielens, J. J. van Hellemond, J. F. Brouwers, Rapid Commun. Mass Spectrom. 2008, 22, 1853.^[20]"}, "[5]": {"target": "defatted bovine serum albumin (BSA) (Bos taurus, UniProt P02769)", "sequence (P02769 25-607)": "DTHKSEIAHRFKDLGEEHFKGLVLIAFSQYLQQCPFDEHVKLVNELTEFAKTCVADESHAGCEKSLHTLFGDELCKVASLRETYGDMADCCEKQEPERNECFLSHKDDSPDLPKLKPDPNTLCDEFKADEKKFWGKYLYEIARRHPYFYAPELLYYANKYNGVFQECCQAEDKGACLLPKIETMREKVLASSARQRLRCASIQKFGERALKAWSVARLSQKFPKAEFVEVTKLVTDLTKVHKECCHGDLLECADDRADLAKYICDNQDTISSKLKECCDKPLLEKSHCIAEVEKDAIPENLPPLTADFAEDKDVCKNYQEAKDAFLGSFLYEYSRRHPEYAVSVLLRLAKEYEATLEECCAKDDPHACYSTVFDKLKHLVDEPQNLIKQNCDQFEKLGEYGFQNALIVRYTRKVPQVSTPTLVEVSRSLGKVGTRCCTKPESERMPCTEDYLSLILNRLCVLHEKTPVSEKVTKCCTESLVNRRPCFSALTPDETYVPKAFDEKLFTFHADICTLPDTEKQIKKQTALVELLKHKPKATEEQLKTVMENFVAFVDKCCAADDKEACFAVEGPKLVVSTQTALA", "assay": "Photo-affinity labeling of defatted BSA with C15pacFA, click reaction with biotin-azide, Western blot", "format": "binding", "settings": "incubation with C15pacFA, UV-irradiation and click reaction with biotin-azide", "description": "As a proof-of-concept that C15pacFA can be used to tag proteins with an affinity for fatty acids, defatted bovine serum albumin (BSA) was incubated with C15pacFA and subsequently UV-irradiated. Thereafter, the mixture was subjected to a click reaction, applying biotin-azide (see FIG. 5). […] CuSO4 serves as a source for Cu(I) that is required for the catalytic cycle of the [3+2] cyclo-addition and was formed in situ by the addition of the reducing agent TCEP.\nSamples were irradiated applying a 200 W high pressure mercury lamp (Oriel Photomax) equipped with a PYREX® glass filter to remove wavelengths below 350 nm. Samples were placed on ice at a distance from 35 cm from the light source. […] Samples were UV irradiated for 1 minute. […]"}, "CHO-CGalT cells [6]": {"test_system": "CHO-CGalT cells", "assay": "Morphology of cells after labeling with pacFAs", "format": "cell-based", "settings": "cells labeled with pacFA"}, "HeLa cells": {"test_system": "HeLa cells", "assay": "Cell imaging of bifunctional lipids: UV fixation, lipid extraction, alexa-azide click, fluorescent microscopy", "format": "cell-based", "settings": "UV irradiated versus non-irradiated, non-crosslinked lipids extracted", "protocol": "Microscopy of lipids requires a fluorescent tag on the lipid. In contrast to polyene lipids, most fluorescent tags interfere with the properties of thus labeled lipids.^[24] […] Lipids are highly dynamic and their chemical fixation remained difficult. […] To this end, C15pacFA was administered to cells. Lipids were fixed in vivo by UV-irradiation followed by the fixation of cells with methanol. In order to remove non-protein-crosslinked lipids, cells were extracted according to Bligh and Dyer.^[27] Samples were subjected to click reactions with alexa-azide and lipids were visualized by fluorescent microscopy.\nHeLa cells grown on cover slips in a 24-well plate were labeled for 1 hour in 0.5 ml DMEM 4.5 g/liter glucose supplemented with 10% delipidated FCS and 100 μM C15pacFA. The cells were washed with 0.5 mL PBS, overlaid with 0.5 mL PBS and UV irradiated on ice for 2 minutes. After UV irradiation the cells were fixed with 0.5 mL of −20° C. cold MeOH for 10 minutes. After fixation cells were subjected to one, two or three rounds of lipid extraction according to Bligh and Dyer using 0.5 ml of CHCl3/MeOH/AcOH 10:55:0.75 v/v for each extraction (for each extraction coverslips were incubated for 1 minute at room temperature). The coverslips were washed with 0.5 mL PBS and then subjected to click reactions. […]"}},
  "data": [
    {"smiles": "C#CCc1ccccc1", "note": "[3-phenyl-1-propyne]", "values": [
      {"measurement": "stability towards UV irradiation", "setting": "[1]", "result": "stability of alkynes towards UV irradiation"}
    ]},
    {"smiles": "CCCCCCCCC1(CCCCCCCCC(=O)O)N=N1", "note": "[10-ASA, 10-azi-stearic acid]", "values": [
      {"measurement": "activation of the photoactivatable group", "setting": "[2]", "result": 95, "unit": "%"}
    ]},
    {"smiles": "C#CCCCC1(CCCCCCCCC(=O)O)N=N1", "note": "[C15pacFA, 9-(3-pent-4-ynyl-3-H-diazirin-3-yl)-nonanoic acid]", "values": [
      {"measurement": "proteins labeled by photo-affinity labeling (in-gel fluorescence)", "setting": "[3]", "result": "not only membrane proteins were labeled by means of photo-affinity labeling but also cytosolic proteins"},
      {"measurement": "labeling of lysozyme", "setting": "lysozyme", "result": "no labeling of lysozyme was observed"},
      {"measurement": "incorporation into sphingomyelin (SM)", "setting": "CHO-CGalT cells [4]", "result": "No significant incorporation"},
      {"measurement": "incorporation into phosphatidylcholine (pacPC species)", "setting": "CHO-CGalT cells [4]; precursor ion scan 184 Da", "result": "led to additional peaks corresponding to pacPC species"},
      {"measurement": "labeling of BSA", "setting": "[5]", "result": "BSA could be labeled"},
      {"measurement": "morphological differences after labeling", "setting": "CHO-CGalT cells [6]", "result": "No morphological differences were observed"},
      {"measurement": "fluorescent structures after click reaction with alexa-azide", "setting": "HeLa cells", "result": "Fluorescent structures were only visible in the UV irradiated samples"}
    ]},
    {"smiles": "C#CCCCC1(CCCCCCCCC(=O)O)N=N1", "note": "[C16pacFA, 9-(3-Pent-4-ynyl-3-H-diazirin-3-yl)-nonanoic acid]", "values": [
      {"measurement": "incorporation into sphingomyelin (SM)", "setting": "CHO-CGalT cells [4]", "result": "no incorporation"},
      {"measurement": "morphological differences after labeling", "setting": "CHO-CGalT cells [6]", "result": "No morphological differences were observed"}
    ]}
  ]
}
